Experimental data taken from patent publication US20150218212A1, “FLUORINATED EPOXYKETONE-BASED TETRAPEPTIDE COMPOUNDS AND USES THEREOF AS PROTEASOME INHIBITORS” (FLUORINOV PHARMA INC., priority 2012, published 2015).

Experiments:
[1] = biological target: T1, proteasome Caspase-like (C-L) activity (Mus musculus, UniProt P70195+Q60692); test: Pharmacodynamic proteasome activity in murine red blood cells, C-L; format: in vivo, NOD/SCID mice; details: iv, mice, 2 mg/kg i.v., time 0, read-out: Caspase-like (C-L) mean residual activity relative to vehicle treated controls
T1 construct: RBCs were lysed with assay lysis buffer and incubated on ice for 30 minutes; from tissue; host or cells: red blood cells of NOD/SCID mice
Description: Cells were harvested by centrifugation at 1,200 rpm at room temperature. Cell pellets were washed with PBS (phosphate buffered saline) and lysed with assay lysis buffer (50 mM HEPES (N-2-hydroxyethylpiperazine-N′-2-ethanesulfonic acid), pH 7.5; 150 mM NaCl; 1% Triton X-100; 2 mM ATP). Cell lysates were incubated on ice for 30 minutes, mixed by vortex every 5 minutes, and then centrifuged at 12,000 g for 10 minutes. The supernatant was transferred to a 96-well plate. For each assay, 10 μg of total protein were incubated for 1 hour at 37° C. with increasing concentrations (1 nM to 10 μM) of test compound diluted in assay buffer (50 mM tris-HCl (tris(hydroxymethyl)aminomethane-HCl), pH 7.5; 150 mM NaCl). DMSO alone was used as a control in every assay plate. After incubation, a specific fluorogenic proteasome substrate was added to each assay reaction at a final concentration of 40 μM in a total volume of 100 μL. N-Succinyl-Leu-Leu-Val-Tyr-7-amino-4-methylcoumarin (Suc-Leu-Leu-Val-Tyr-AMC) was used for measuring chymotrypsin-like (CT-L) activity, t-butoxycarbonyl-Leu-Arg-Arg-7-amino-4-methylcoumarin (Boc-Leu-Arg-Arg-AMC) for trypsin-like (T-L) activity, and benzyloxycarbonyl-L-leucyl-L-leucyl-L-glutamyl-7-amino-4-methylcoumarin (Z-Leu-Leu-Glu-AMC) for caspase-like (C-L) activity. The excitation wavelength was set at 360 nm and the fluorescence emission wavelength of AMC was detected at 460 nm. The fluorescence of free AMC released during the enzymatic reaction was measured with a SpectraMax M5 fluorescent spectrophotometric plate reader (Molecular Devices, Sunnyvale, Calif.). AMC release rate was measured at 37° C. in a kinetic mode, recording every 5 minutes for 30 minutes. Experiments were performed in triplicate and repeated at least twice.
All mouse experiments were performed in accordance with approval from the Ontario Cancer Institute institutional animal review board. Five- to six-week-old male non-obese diabetic/severe combined immunodeficient (NOD/SCID) mice were grouped randomly (n=3 mice per group). Mice were administered vehicle (5% DMSO, 20% Cremophor) or compounds of Formula I at different doses either intravenously or by oral gavage, and venous blood samples (20-50 μL) were collected from each mouse over 24 hours. Blood samples were mixed with heparin (APP Pharmaceuticals; Schaumburg, Ill.) in 0.5 mL tubes in accordance with the manufacturer's instructions. After centrifugal separation at 3,000 g for 10 minutes, red blood cells (RBCs) in the bottom layer were transferred into a new tube and stored at −70° C. until use. RBCs were lysed with assay lysis buffer and incubated on ice for 30 minutes, mixing by vortex every 5 minutes, and then centrifuged at 12,000 g for 10 minutes. The supernatant was transferred to a 96-well plate and proteasome activity was measured as described above for tumor cell lysates.
Proteasome subunit activity (Chymotrypsin-like, Trypsin-like, Caspase-like, CT-L, T-L, C-L, respectively) were monitored over the course of 24 hrs following […] administration of representative compounds of Formula I. NOD/SCID mice were treated with compounds of Formula I (2 mg/kg by iv administration) or vehicle control and carfilzomib for up to 24 hours, as described above. Table 9 summarizes the data on pharmacodynamic activity of representative compounds of Formula I following a dose of 2 mg/kg intravenous (i.v) administration to mice. Data are presented as mean residual activity (SEM) relative to vehicle treated controls.

MDA-MB-435 = test: NCI screening panel, MDA-MB-435 (Melanoma); format: cell-based, human
Description: Representative compounds of Formula I were screened using the National Cancer Institute (NCI) screening panel, which consists of a panel of human tumor cell lines, representing leukemia, melanoma, and cancers of the lung, colon, ovary, breast, prostate and renal system.
After 24 h, two plates of each cell line are fixed in situ with TCA, to represent a measurement of the cell population for each cell line at the time of drug addition (Tz). Experimental drugs are solubilised in dimethyl sulfoxide at 400-fold the desired final maximum test concentration and stored frozen prior to use. At the time of drug addition, an aliquot of frozen concentrate is thawed and diluted to twice the desired final maximum test concentration with complete medium containing 50 μg/mL gentamicin. Additional four, 10-fold or ½ log serial dilutions are made to provide a total of five drug concentrations plus control. Aliquots of 100 μl of these different drug dilutions are added to the appropriate microtiter wells already containing 100 μl of medium, resulting in the required final drug concentrations.
Following drug addition, the plates are incubated for an additional 48 h at 37° C., 5% CO2, 95% air, and 100% relative humidity. For adherent cells, the assay is terminated by the addition of cold TCA (trichloroacetic acid). Cells are fixed in situ by the gentle addition of 50 μl of cold 50% (w/v) TCA (final concentration, 10% TCA) and incubated for 60 minutes at 4° C. The supernatant is discarded, and the plates are washed five times with tap water and air dried. Sulforhodamine B (SRB) solution (100 μl) at 0.4% (w/v) in 1% acetic acid is added to each well, and plates are incubated for 10 minutes at room temperature. After staining, unbound dye is removed by washing five times with 1% acetic acid and the plates are air dried. Bound stain is subsequently solubilised with 10 mM trizma base, and the absorbance is read on an automated plate reader at a wavelength of 515 nm. For suspension cells, the methodology is the same except that the assay is terminated by fixing settled cells at the bottom of the wells by gently adding 50 μl of 80% TCA (final concentration, 16% TCA). Using the seven absorbance measurements [time zero, (Tz), control growth, (C), and test growth in the presence of drug at the five concentration levels (Ti)], the percentage growth is calculated at each of the drug concentrations levels. Percentage growth inhibition is calculated as: [(Ti−Tz)/(C−Tz)]×100 for concentrations for which Ti>/=Tz and [(Ti−Tz)/Tz]×100 for concentrations for which Ti<Tz.
Three dose response parameters are calculated for each experimental agent. Growth inhibition of 50% (GI50) is calculated from [(Ti−Tz)/(C−Tz)]×100=50, which is the drug concentration resulting in a 50% reduction in the net protein increase (as measured by SRB staining) in control cells during the drug incubation. The drug concentration resulting in total growth inhibition (TGI) is calculated from Ti=Tz. The LC50 (concentration of drug resulting in a 50% reduction in the measured protein at the end of the drug treatment as compared to that at the beginning) indicating a net loss of cells following treatment is calculated from [(Ti−Tz)/Tz]×100=−50. Values are calculated for each of these three parameters if the level of activity is reached. However, if the effect is not reached or is exceeded, the value for that parameter is expressed as greater or less than the maximum or minimum concentration tested.

Row | SMILES | remaining activity at 2 mg/kg [1] [%] | Log10GI50 (MDA-MB-435) | Log10LC50 (MDA-MB-435) | Log10TGI50 (MDA-MB-435)
1 | CC(C)C[C@H](NC(=O)[C@H](COC(F)F)NC(=O)CN1CCOCC1)C(=O)N[C@@H](COC(F)F)C(=O)N[C@@H](CC(C)C)C(=O)[C@@]1(C)CO1 [Example 1, (2S)—N-[(1S)-1-(difluoromethoxymethyl)-2-[[(1S)-3-methyl-1-[(2R)-2-methyloxirane-2-carbonyl]butyl]amino]-2-oxo-ethyl]-2-[[(2S)-3-(difluoromethoxy)-2-[(2-morpholinoacetyl)amino]propanoyl]amino]-4-methyl-pentanamide] | 100 | −7.78 | −7.07 | −7.42
2 | CC(C)C[C@H](NC(=O)[C@H](COC(F)F)NC(=O)CN1CCOCC1)C(=O)N[C@@H](Cc1ccccc1)C(=O)N[C@@H](CC(C)C)C(=O)[C@@]1(C)CO1 [Example 2, (2S)-N-[(1S)-1-benzyl-2-[[(1S)-3-methyl-1-[(2R)-2-methyloxirane-2-carbonyl]butyl]-amino]-2-oxo-ethyl]-2-[[(2S)-3-(difluoromethoxy)-2-[(2-morpholinoacetyl)amino]propanoyl]amino]-4-methyl-pentanamide] | 100 | −7.99 | −7.14 | −7.56
3 | CC(C)C[C@H](NC(=O)[C@H](COC(F)F)NC(=O)CN1CCOCC1)C(=O)N[C@@H](Cc1ccccc1)C(=O)N[C@@H](Cc1ccccc1)C(=O)[C@@]1(C)CO1 [Example 3, (2S)-N-[(1S)-1-benzyl-2-[[(1S)-1-benzyl-2-[(2R)-2-methyloxiran-2-yl]-2-oxo-ethyl]amino]-2-oxo-ethyl]-2-[[(2S)-3-(difluoromethoxy)-2-[(2-morpholinoacetyl)-amino]propanoyl]amino]-4-methyl-pentan-amide] | 100 | <−8.00 | −7.34 | −7.90
4 | CC(C)C[C@H](NC(=O)[C@H](COC(F)F)NC(=O)CN1CCOCC1)C(=O)N[C@@H](COC(F)F)C(=O)N[C@@H](Cc1ccccc1)C(=O)[C@@]1(C)CO1 [Example 4, (2S)-N-[(1S)-2-[[(1S)-1-benzyl-2-[(2R)-2-methyloxiran-2-yl]-2-oxo-ethyl]amino]-1-(difluoromethoxymethyl)-2-oxo-ethyl]-2-[[(2S)-3-(difluoromethoxy)-2-[(2-mor-pholinoacetyl)amino]propanoyl]amino]-4 methyl-pentanamide] | 100 | −7.79 | −7.09 | −7.44
5 | CC(C)C[C@H](NC(=O)[C@H](COC(F)F)NC(=O)[C@H](COC(F)F)NC(=O)[C@H](CCc1ccccc1)NC(=O)CN1CCOCC1)C(=O)[C@@]1(C)CO1 [Example 7, (2S)-N-[(1S)-1-(difluoromethoxymethyl)-2-[[(1S)-1-(difluoromethoxymethyl)-2-[[(1S)-3-methyl-1-[(2R)-2-methyloxirane-2-carbo-nyl]butyl]amino]-2-oxo-ethyl]amino]-2-oxo-ethyl]-2-[(2-morpholinoacetyl)amino]-4-phenyl-butanamide] | 100 | −7.83 | −7.12 | −7.47
6 | CC(C)C[C@H](NC(=O)[C@H](Cc1ccccc1)NC(=O)[C@H](COC(F)F)NC(=O)[C@H](COC(F)F)NC(=O)CN1CCOCC1)C(=O)[C@@]1(C)CO1 [Example 11, (2S)-2-[[(2S)-3-(difluoromethoxy)-2-[[(2S)-3-(difluoromethoxy)-2-[(2-morpholinoacetyl)-amino]propanoyl]amino]propanoyl]amino]-N-[(1S)-3-methyl-1-[(2R)-2-methyloxirane-2-carbonyl]butyl]-3-phenyl-propanamide] | 100 | −7.90 | −7.24 | −7.57
7 | CC(C)C[C@H](NC(=O)[C@H](COC(F)F)NC(=O)[C@H](COC(F)F)NC(=O)[C@H](COC(F)F)NC(=O)CN1CCOCC1)C(=O)[C@@]1(C)CO1 [Example 17, (2S)-3-(difluoromethoxy)-N-[(1S)-1-(difluoromethoxymethyl)-2-[[(1S)-1-(difluoro-methoxymethyl)-2-[[(1S)-3-methyl-1-[(2R)-2-methyloxirane-2-carbonyl]butyl]amino]-2-oxo-ethyl]amino]-2-oxo-ethyl]-2-[(2-mor-pholinoacetyl)amino]-propanamide] | 100 | −7.42 | −6.29 | −6.81
